Laboratory results reported in patent US20100278855A1, “NEUROPROTECTIVE GANODERMA COMPOSITIONS AND METHODS OF USE” (priority 2009, published 2010).

Experiments:
[1] = tested on: MES 23.5 cells; assay: High-affinity [3H] dopamine uptake assay, MES 23.5 neurons alone; type: cell-based, rat/murine; details: 100 μM MPP+ 24 hr, MES23.5 neurons alone, no Ganoderma
From the text: (§1) The dopaminergic cell line MES 23.5 was a gift from professor Wei-dong Le, Department of Neurology, Baylor College of Medicine, Houston. The MES 23.5 cells were derived from somatic cell fusion of rat embryonic mesencephalic cells with murine N18TG2 neuroblastoma cells (Crawford, G. D. et al., 1992, J. Neurosci., 12:3392-3398). MES 23.5 cells display many properties of developing neurons of the SN zona compacta and offer several advantages for such initial studies, including greater homogeneity than primary cultures and susceptibility to both free-radical-mediated cytotoxicity and calcium-dependent cell death. […]
(§2) Cells in each well were washed with 1 ml of Krebs-Ringer buffer (16 mM NaH2PO4, 16 mM Na2HPO4, 119 mM NaCl, 4.7 mM KCl, 1.8 mM CaCl2, 1.2 mM MgSO4, 1.3 mM EDTA, and 5.6 mM glucose; pH 7.4). […] After mixing the lysate with 3 ml of scintillation fluid overnight, radioactivity was determined with Perkin Elmer 1450LSC Luminescence Counter (Waltham, USA.). Specific uptake was determined by subtracting the nonspecific counts for the total activity.
(§3) To assess inflammation mediated neurotoxicy, dopaminergic MES23.5 neurons were exposed to 100 μM MPP^+ or 0.25 μg/ml LPS in the absence or presence of microglia co-culture for 24 hr, and neurotoxicity was assessed using [3H] […]

[2] = tested on: MES 23.5 and microglia co-cultures; assay: High-affinity [3H] dopamine uptake assay, MES 23.5 and microglia co-cultures; type: cell-based, rat; details: no Ganoderma
From the text: as §1, §2, §3

[3] = tested on: TNF-α mRNA; assay: Real-time PCR of TNF-α mRNA in primary microglial cells; type: cell-based, rat; details: stimulus alone vs control cells
From the text: (§4) Total RNA was extracted from primary microglial cells using RNAprep Kit according to the manufacturer's specifications. RNA was primed with random 9 mers and converted into cDNA by reverse transcription (RT) using AMV reverse transcriptase by following the manufacturer's recommended protocol (Schell, J. B. et al., 2007, J. Neuroimmunol., 189:75-87; Liu, B. et al., 2000, J. Pharmacol. Exp. Ther., 293:607-617). The resulting cDNA was then subjected to real-time PCR with SYBR Premix Ex Taq containing a final concentrations of 1×SYBR Green (Molecular Probes) and 0.2 μM of the primer set of interest in a […] reaction. The PCR mixture was run in the DNA engine Opticon 2 (MJ research; Waltham, Mass.). After an initial 10-second 95° C. denaturation step, the reaction was run through 35 cycles at 95° C. for 5 s, 60° C. for 30 s, and 80° C. for 1 s. Melting curve analysis was executed to ensure the resulting products from the reaction had equivalent and appropriate melting temperatures. The specific primers used are listed in Table 1 (Schell, J. B. et al., 2007, J. Neuroimmunol., 189:75-87). The quantification of target transcripts was based on a calibration curve. The “housekeeping” gene β-actin was targeted for an internal control gene. The test gene data were normalized by corresponding β-actin data.

[4] = tested on: TNF-α; assay: TNF-α ELISA in microglia culture medium; type: cell-based, rat; details: stimulus alone: LPS 0.25 μg/ml or MPP+-treated cell membrane fraction 150 μg/ml
Procedure: (§5) Microglia were isolated and purified from brains of 12-24 hours old Wistar rats supplied by Laboratory Animal Center (Le, W. D. et al., 2001, J. Neurosci., 21:8447-8455). Briefly, after brains were dissected and the meninges removed, the tissues were minced and digested with trypsin (0.25% trypsin-EDTA in 0.1M phosphate buffer) for 20 minutes at 37° C., triturated with a fire-polished Pasteur pipette and filtered through a […] nylon cell strainer. After centrifugation for 5 minutes at 800 rpm, the tissues were suspended into DMEM containing 10% fetal bovine serum (FBS), and seeded in 75 cm^2 flasks at a density of 5×10^5/ml cells per flask.
(§6) Two weeks after the seeding, the flasks were shaken at 180 rpm for 4 hours, and the floating cells were collected and centrifuged for 5 minutes at 800 rpm. The cells were resuspended and plated to 96-well plates for further experimental treatment.
(§7) To study the interaction of reactive microglia with MES 23.5 cells, microglia and MES 23.5 cells were co-cultured in 24-well culture plates. Briefly, the purified microglia were plated at a density of 1×10^4/well 1 day before addition of MES 23.5 cells at a ratio of 2:1 (MES 23.5 to microglia). […]
(§8) Samples were prepared similar to NO samples and the production of these factors were determined using rat TNF-α kit, rat IL-1β ELISA kit and superoxide Assay Kit-WST according to the manufacturer's instructions. […]

[5] = tested on: IL-1β; assay: IL-1β ELISA in microglia culture medium; type: cell-based, rat; details: stimulus alone: LPS 0.25 μg/ml or MPP+-treated cell membrane fraction 150 μg/ml
Procedure: as §5, §6, §7, §8

[6] = tested on: IL-1β mRNA; assay: Real-time PCR of IL-1β mRNA in primary microglial cells; type: cell-based, rat; details: stimulus alone vs control cells
From the text: as §4

[7] = tested on: superoxide; assay: Superoxide assay (Assay Kit-WST) in microglia cultures; type: cell-based, rat; details: stimulus alone: LPS 0.25 μg/ml or MPP+-treated cell membrane fraction 150 μg/ml
Procedure: as §5, §6, §7, §8

[8] = tested on: nitric oxide (NO); assay: NO assay (Griess reagent) in microglia culture medium; type: cell-based, rat; details: stimulus alone: LPS 0.25 μg/ml or MPP+-treated cell membrane fraction 150 μg/ml
Procedure: as §5
Two weeks after the seeding, the flasks were shaken at 180 rpm for 4 hours, and the floating cells were collected and centrifuged for 5 minutes at 800 rpm. The cells were resuspended and plated to 96-well plates for further experimental treatment. […]
The production of NO was quantified by measuring the released NO metabolites (nitrates and nitrites) with Griess reagent (Mayer, A. M., 1998, Medicina (B Aires), 58:377-385). […] The medium was incubated with the same volume of Griess reagent at room temperature for 10 minutes before measuring absorbance at 540 nm in a LP-400 ELISA reader (Diagnostics Pasteur, Marne-la-Coquette, France) with appropriate standards. […]

| Compound | decrease in [3H] DA uptake [1] | decrease in [3H] DA uptake ([2]; 100 μM MPP+ 24 hr, MES23.5 and microglia co-cultures) | TNF-α mRNA expression [3] | reduction of [3H] DA uptake ([2]; 0.25 LPS 24 hr, neuron-microglia co-cultures) | increase of TNF-α level [4] | increase of IL-1β level [5] | IL-1β mRNA expression [6] | increase of superoxide level [7] | increase of NO level [8] |
| --- | --- | --- | --- | --- | --- | --- | --- | --- | --- |
| C[n+]1ccc(-c2ccccc2)cc1 [MPP^+] | about 66% | about 74% |  |  |  |  |  |  |  |
| lipopolysaccharide [LPS] |  |  | significantly increased | approximately 50% | 6-11 fold | 6-11 fold | significantly increased | 5-11 fold | 5-11 fold |
